Data taken from US7652006B2, “Substituted 1(2H)-phthalazinones and pharmaceutical compositions thereof” (Euro-Celtique S.A., priority 1998, dated 2010).
Counter-ions that a name gives are not always drawn. Like-named read-outs stand apart in the source and are kept apart here.

How the values were obtained:
[1] = tested on: AMPA receptors; assay: electrophysiological assay, AMPA receptors expressed in oocyte; assay type: cell-based, rat; details: inhibiting or modulating AMPA receptors expressed in oocyte, read-out: AMPA IC50
From the text: The compounds of the present invention may be assessed by electrophysiological assays in Xenopus oocytes expressing rat whole brain poly(A)^+ RNA (see Keana et. al. J. Med. Chem. 38: 4367-4379 (1995)) or in cultured rat cortical neurons (see Woodward et. al. Mol. Pharmacol. 47: 568-581 (1995)) for AMPA receptor activity. Compounds which are useful for treating or preventing the adverse consequences of stroke, hypoglycemia, neurodegenerative disorders, anxiety, epilepsy or psychosis, or which induce analgesia, will inhibit the currents across the membranes of the oocyte expressing AMPA receptors. However, if the compound potentiates currents across the oocyte membrane, then the compound is expected to be useful in enhancing cognition or treating schizophrenia or neurodegenerative disease such as Parkinson's Disease.
The potency of antagonism or potentiation for these compounds were determined by electrophysiological assay. Potencies of selective compounds described above in inhibiting or modulating AMPA receptors expressed in oocyte and their anticonvulsant activity against maximal electroshock induced convulsion are shown in Table 1.

[2] = tested on: maximal electroshock induced convulsion; assay: Maximal Electroshock-induced Seizure (MES) test; assay type: in vivo, mice; details: iv, anticonvulsant activity against maximal electroshock induced convulsion; for ED50: Mus musculus
From the text: The compounds of the present invention may be tested for […] anticonvulsant activity after iv or ip injection using a number of anticonvulsant tests in mice (audiogenic seizure model in DBA-2 mice. pentylenetetrazol-induced seizures in mice, maximum electroshock seizure test (MES)). The anticonvulsant activity of the AMPA antagonists may be evaluated in the Maximal Electroshock-induced Seizure (MES) test. Seizures are induced by application of current (50 mA, 60 pulses/sec, […], 1 sec duration, d.c.) through saline-coated corneal electrodes using a Ugo Basile ECT device (Model 7801). […] A tonic seizure is defined as a hindlimb extension in excess of 90 degrees from the plane of the body. Results are treated in a quintal manner. The potency of antagonism or potentiation for these compounds were determined by electrophysiological assay. Potencies of selective compounds described above in inhibiting or modulating AMPA receptors expressed in oocyte and their anticonvulsant activity against maximal electroshock induced convulsion are shown in Table 1.

Row | IC50 [1] [µM] | melting point [°C] | Compound | ED50 [2] [mg/kg] | also measured
1 | 2.5 |  | CN(C)CCOc1nc(-c2ccc3c(c2)OCO3)c2cc3c(cc2n1)OCO3 [6,7-Methylenedioxy-4-(3,4-methylenedioxyphenyl)-2-(2-(dimethylamino)ethoxy)-quinazoline] | 4 | 
2 | 11 | 180 to 185 | c1nc(-c2ccc3c(c2)OCO3)c2cc3c(cc2n1)OCO3 [6,7-Methylenedioxy-4-(3,4-methylenedioxyphenyl)quinazoline] |  | 
3 | 2 | 213 to 215 | CC(C)n1c(=O)nc(-c2ccc3ccccc3c2)c2cc3c(cc21)OCO3 [1-Isopropyl-6,7-methylenedioxy-4-(2-naphthyl)quinazolin-2(1H)-one] | 4.5 | 
4 |  |  | CN(C)CCn1c(=O)nc(-c2ccc3c(c2)OCO3)c2cc3c(cc21)OCO3 [1-(2-(dimethylamino)ethyl)-6,7-methylenedioxy-4-(3,4-methylenedioxyphenyl)quinazolin-2-(1H)-one hydrochloride] |  | IC50 ([1]; hydrochloride): 1.1 µM; MES ED50 ([2]; hydrochloride): 8.1 mg/kg
5 | 13 | 241 to 243 | CC(C)n1c(=O)nc(-c2ccc3ocnc3c2)c2cc3c(cc21)OCO3 [1-Isopropyl-6,7-methylenedioxy-4-(5-benzoxazole)quinazolin-2(1H)-one] |  | 
6 | 2 |  | CC(C)n1c(=O)nc(-c2ccc3c(c2)OCO3)c2cc3oc(=O)n(C)c3cc21 [1-Isopropyl-4-(3,4-methylenedioxyphenyl)-8-methyl-7-oxo-oxazol[5,4-g]quinazolin-2(1H)-one] | 1.5 | 
7 | 5 |  | CN(C)CCn1nc(-c2ccc3c(c2)OCO3)c2cc3c(cc2c1=O)OCO3 [2-[2-(Dimethylamino)ethyl]-4-(3,4-methylenedioxyphenyl)-6,7-methylenedioxy-1(2H)-phthalazinone] | 3.5 | 
8 | 2 |  | CCN(CC)CCn1c(=O)nc(-c2ccc3c(c2)OCO3)c2cc3c(cc21)OCO3 [1-[2-(diethylamino)ethyl]4-(3,4-methylenedioxyphenyl)-6,7-methylenedioxyquinazolin-2(1H)-one] | 5.2 | 
9 | 0.2 | 220 to 225 | CN(C)CCn1c(=O)nc(-c2ccc3c(c2)OCCO3)c2cc3c(cc21)OCO3 [1-(2-(dimethylamino)ethyl)-6,7-methylenedioxy-4-(3,4-ethylenedioxyphenyl)-quinazolin-2(1H)-one] | 1 | 
10 |  |  | CN(C)CCOc1nc(-c2ccc3c(c2)OCO3)c2cc3c(cc2n1)OCO3.Cl [6,7-methylenedioxy-4-(3,4-methylenedioxyphenyl)-2-(2-(dimethylamino)ethoxy)quinazoline hydrochloride] | 10 | IC50 ([1]; hydrochloride): 10 µM
11 | 10 |  | O=c1c2cc3c(cc2c(-c2ccc4c(c2)OCO4)nn1CCN1CCCC1)OCO3 [2-[2-(1-Pyrrolidinyl)ethyl]-4-(3,4-methylenedioxyphenyl)-6,7-methylenedioxy-1(2H)-phthalazinone] | 3.8 | 
12 | 7 | 235 to 240 | C#CCn1c(=O)nc(-c2ccc3c(c2)OCO3)c2cc3c(cc21)OCO3 [1-(2-Propynyl)-6,7-methylenedioxy-4-(3,4-methylenedioxyphenyl)quinazolin-2(1H)-one] |  | 
13 | 5 | 110 to 145 | CCCn1c(=O)oc2cc3c(-c4ccc5c(c4)OCO5)nc(=O)n(C(C)C)c3cc21 [1-Isopropyl-4-(3,4-methylenedioxyphenyl)-8-propyl-7-oxo-oxazol[5,4-g]quinazolin-2(1H)-one] |  | 
14 | 5 |  | CCn1c(=O)nc(-c2ccc3c(c2)OCO3)c2cc3c(cc21)OCO3 [1-Ethyl-6,7-methylenedioxy-4-(3,4-methylenedioxyphenyl)quinazolin-2(1H)-one] | 3.4 | 
15 | 4 | 160 to 163 | c1cn(CCc2nc(-c3ccc4c(c3)OCO4)c3cc4c(cc3n2)OCO4)cn1 [2-(Imidazol-1-yl)ethyl-6,7-methylenedioxy-4-(3,4-methylenedioxyphenyl)quinazoline] | 3.1 | 
16 | 1.1 |  | CCn1c(=O)nc(-c2ccc3c(c2)OCCO3)c2cc3c(cc21)OCO3 [1-Ethyl-6,7-methylenedioxy-4-(3,4-ethylenedioxyphenyl)quinazolin-2(1H)-one] | 3 | 
17 | 8 |  | CCOCCn1c(=O)nc(-c2ccc3c(c2)OCO3)c2cc3c(cc21)OCO3 [1-[(2-Ethoxy)ethyl]-6,7-methylenedioxy-4-(3,4-methylenedioxyphenyl)quinazoline-2-one] | 10 | 

Row | IC50 [1] [µM] | melting point [°C] | Compound | ED50 [2] [mg/kg] | also measured
18 | 7 |  | [O-][n+]1cnc2cc3c(cc2c1-c1ccc2c(c1)OCO2)OCO3 [6,7-Methylenedioxy-4-(3,4-methylenedioxyphenyl)quinazoline 3-oxide] | 2.5 | 
19 | 1.8 | 214 to 217 | CC(C)n1c(=O)nc(-c2ccc3c(c2)OCCO3)c2cc3c(cc21)OCO3 [1-Isopropyl-6,7-methylenedioxy-4-(3,4-ethylenedioxyphenyl)-quinazolin-2(1H)-one] |  | 
20 | 2.8 |  | CC(C)n1c(=O)nc(-c2ccc3c(c2)OCO3)c2cc3c(cc21)OCO3 [1-Isopropyl-6,7-methylenedioxy-4-(3,4-methylenedioxyphenyl)quinazolin-2(1H)-one] | 3 | 
21 | 12 | 162 to 167 | NCCOc1nc(-c2ccc3c(c2)OCO3)c2cc3c(cc2n1)OCO3 [2-(2-Aminoethoxy)-6,7-methylenedioxy-4-(3,4-methylenedioxyphenyl)quinazoline] |  | 
22 | 5.5 | 147 to 150 | CC(C)n1c(=O)nc(-c2cc3c(cc2Cl)OCO3)c2cc3c(cc21)OCO3 [1-Isopropyl-6,7-methylenedioxy-4-(2-chloro-4,5-methylenedioxyphenyl)quinazolin-2(1H)-one] | 6.2 | 
23 |  | 240 to 245 | CC(C)n1c(=O)nc(-c2ccc(N(C)C)cc2)c2cc3c(cc21)OCO3 |  | 
24 | 5 |  | [O-][n+]1c(Cn2ccnc2)nc2cc3c(cc2c1-c1ccc2c(c1)OCO2)OCO3 [2-(Imidazol-1-yl)methyl-6,7-methylenedioxy-4-(3,4-methylenedioxyphenyl)quinazoline-3-oxide] | 5 | 
25 |  | 216 to 223 | COc1nc(-c2ccc3c(c2)OCO3)c2cc3c(cc2n1)OCO3 |  | 
26 | 10 |  | CC(C)n1c(=O)nc(-c2ccc3c(c2)CCO3)c2cc3c(cc21)OCO3 [4-(2,3-Dihydrobenzofuran-5-yl)-1-isopropyl-6,7-methylenedioxyquinazolin-2(1H)-one] | 3.3 | 
27 | 1 | 175 to 182 | CN(C)CCn1c(=O)nc(-c2ccc3c(c2)OCO3)c2cc3c(cc21)OCO3 [1-(2-(dimethylamino)ethyl)-6,7-methylenedioxy-4-(3,4-methylenedioxyphenyl)-quinazolin-2(1H)-one] |  | MES ED50 [2]: 1.5 mg/kg
28 | 5 | 73 to 75 | CC(C)n1c(=O)nc(-c2ccc3c(c2)CCC3)c2cc3c(cc21)OCO3 [1-Isopropyl-6,7-methylenedioxy-4-(5-indanyl)quinazolin-2(1H)-one] |  | 
29 | 8 | 279 to 281 | CC(C)n1c(=O)nc(-c2cnc3ccccc3c2)c2cc3c(cc21)OCO3 [1-Isopropyl-6,7-methylenedioxy-4-(3-quinolyl)quinazolin-2(1H)-one] |  | 
30 | 9 | 195 to 198 | c1ncn(Cc2nc(-c3ccc4c(c3)OCO4)c3cc4c(cc3n2)OCO4)n1 [6,7-Methylenedioxy-2-(1,2,4-triazol-1-yl)methyl-4-(3,4-methylenedioxyphenyl)quinazoline] |  | 
31 | 7 | 155 to 160 | Cn1ccnc1SCc1nc(-c2ccc3c(c2)OCO3)c2cc3c(cc2n1)OCO3 [2-[(1-Methyl-2-imidazolyl)thio]methyl-6,7-methylenedioxy-4-(3,4-methylenedioxy-phenyl)quinazoline] |  | 
32 | 8 |  | [O-][n+]1c(CCl)nc2cc3c(cc2c1-c1ccc2c(c1)OCO2)OCO3 [2-Chloromethyl-6,7-methylenedioxy-4-(3,4-methylenedioxy-phenyl)quinazoline 3-oxide] | 3.1 | 
33 | 2 | 243 to 245 | CC(C)n1c(=O)nc(-c2ccc3c(c2)OC(F)(F)O3)c2cc3c(cc21)OCO3 [1-Isopropyl-6,7-methylenedioxy-4-(3,4-difluoromethylenedioxyphenyl)quinazolin-2(1H)-one] |  | 
